From US12497412B2 (GUANGZHOU JOYO PHARMATECH CO., LTD, priority 2019, dated 2025)
pIC50: −log10 of the molar value.

Legend:
[1] = system: Ba/F3 LMNA-NTRK1-WT stably transfected cell line; experiment: Cell proliferation inhibition (CellTiter-Glo), Ba/F3 LMNA-NTRK1-WT; type: cell-based; conditions: Mus musculus, BaF3; 72 hours, CTG; read-out: Cell half inhibitory concentration IC50, Ba/F3 LMNA-NTRK1-WT
Method: Adenosine Tri-Phosphate (ATP) is an energy carrier shared by all kinds of life activities in nature, and it is the smallest unit of energy storage and transfer. The CellTiter-Glo™ living cell test reagent kit uses luciferase as the detector, and luciferase requires the participation of ATP in the process of luminescence. CellTiter-Glo™ reagent was added to a cell culture medium, and the luminescence value was measured. The light signal was directly proportional to the amount of ATP in the system, and ATP was positively correlated with the number of living cells. Therefore, cell proliferation can be detected by detecting ATP content with the CellTiter-Glo kit.
a) Cells in logarithmic growth phase were harvested and counted using a […] counter. Cell viability was detected by trypan blue exclusion method to ensure that the cell viability was above 90%.
b) Cell concentration was adjusted; 90 μL of cell suspension was added to a 96-well plate respectively.
a) A 10-fold drug solution was prepared with a maximum concentration of 10 μM, 9 concentrations and 3-fold dilution; 10 μL of drug solution was added to each well in the 96-well plate seeded with cells, and three duplicate wells were set for each drug concentration.
a) CTG reagent was melt and the cell plate was equilibrated to room temperature for 30 minutes.
b) An equal volume of CTG solution was added to each well.
c) Cells were lysed by shaking on an orbital shaker for 5 minutes.
d) The cell plate was placed at room temperature for 20 minutes to stabilize the luminescent signal.
e) The luminescence value was read.
The data were analyzed using GraphPad Prism 5.0 software, and a dose-effect curve was obtained by fitting the data using a nonlinear S-curve regression, from which IC50 values were calculated.

[2] = system: Ba/F3 CD74-ROS1-WT subcutaneous xenograft tumor; experiment: Efficacy in Ba/F3 CD74-ROS1-WT subcutaneous xenograft tumor model; type: in vivo, BALB/c nude mice; conditions: 10 mg/kg PO, 7 days of administration, p = 0.004
Method: Experimental objective: To evaluate the in vivo efficacy of WX-001 in Ba/F3 CD74-ROS1-WT subcutaneous xenograft tumor BALB/c nude mice model.
Drug preparation: Compounds were formulated into clear solutions with 10% DMSO+10% solutol+80% water as the solvent for PO (gavage) group administration.
Tumor measurement: Diameters of tumors were measured with vernier calipers twice a week. The calculation formula of tumor volume was: V=0.5×a×b^2, wherein a and b represented the long and short diameters of the tumor, respectively. The anti-tumor efficacy of the compounds was evaluated by TGI (%) or relative tumor proliferation rate T/C (%). TGI (%) reflects the tumor growth inhibition rate. […] The relative tumor volume (RTV) was calculated according to the results of tumor measurement, and the calculation formula was RTV=Vt/V0, wherein V0 was the tumor volume measured at the time of group administration (that is, D0), Vt was the tumor volume of the corresponding mouse at a certain measurement, and the data of TRTV and CRTV were taken on the same day.
Statistical analysis: Statistical analysis was based on the relative tumor volume and tumor weight at the end of the trial, which was analyzed by SPSS software. The comparison between multiple groups was analyzed by using one-way ANOVA. […]

In the case of N#Cc1nn2ccc3nc2c1C(=O)NC1(CC1)COc1ncc(F)cc1[C@H]1CCON31 [WX-001], the pIC50 [1] was 7.43 and the “TGI (tumor growth inhibition rate)” value [2] was 112.17%.
